Test results as given in patent US12187728B2 (Raze Therapeutics, Inc., priority 2015, dated 2025).

target: T1, Human MTHFD2 (Homo sapiens, UniProt P13995); assay: MTHFD2 Activity Assay (dehydrogenase activity, diaphorase/resazurin coupled fluorescence); type: biochemical; conditions: inhibitory activity (IC50 and/or binding constant); 0.2 nM MTHFD2, 11 concentrations
T1 construct: residues 36-350 in Uniport ID P13995; His6 (N); made in house; host or cells: E. coli
T1 sequence (P13995 36-350): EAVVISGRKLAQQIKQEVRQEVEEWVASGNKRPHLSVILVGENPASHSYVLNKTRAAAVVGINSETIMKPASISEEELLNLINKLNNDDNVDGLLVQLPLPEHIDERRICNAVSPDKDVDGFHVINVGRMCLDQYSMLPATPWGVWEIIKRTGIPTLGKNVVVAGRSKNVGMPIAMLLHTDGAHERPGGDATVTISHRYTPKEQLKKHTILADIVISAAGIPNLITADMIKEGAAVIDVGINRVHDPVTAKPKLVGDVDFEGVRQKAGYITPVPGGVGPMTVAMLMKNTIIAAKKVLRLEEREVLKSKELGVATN
How it was run: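 Steps: compound + 0.2 nM enzyme, 15 min, pH 8.0 Hepes buffer; add 70 μM CH2-THF, 1 mM NAD+, 100 μM resazurin, diaphorase; 30 min; quench with EDTA; read fluorescence. Data normalized to DMSO (100%) and no-enzyme (0%) wells.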

`Cn1c(Nc2cccc(CCC(N)=O)n2)nc2c1c(=O)n(Cc1ccc(Cl)c(Cl)c1)c(=O)n2C` [Example 292, 3-(6-(1-(3,4-dichlorobenzyl)-3,7-dimethyl-2,6-dioxo-2,3,6,7-tetrahydro-1H-purin-8-ylamino)pyridin-2-yl)propanamide] and `Cn1c(Nc2cccc(CCCO)n2)nc2c1c(=O)n(Cc1ccc(Cl)c(Cl)c1)c(=O)n2C` [Example 293, 1-(3,4-dichlorobenzyl)-8-(6-(3-hydroxypropyl)pyridin-2-ylamino)-3,7-dimethyl-1H-purine-2,6(3H,7H)-dione] fall in the same range of IC50: 10 to 1000 nM for the first, 10 to 1000 nM for the second.

`Cn1c(Nc2cccc(CCC(=O)O)n2)nc2c1c(=O)n(Cc1cc3c(Cl)cccc3[nH]1)c(=O)n2C` [Example 294, 3-(6-(1-((4-chloro-1H-indol-2-yl)methyl)-3,7-dimethyl-2,6-dioxo-2,3,6,7-tetrahydro-1H-purin-8-ylamino)pyridin-2-yl)propanoic acid] and `Cn1c(Nc2cccc(CCC(N)=O)n2)nc2c1c(=O)n(Cc1cc3c(Cl)cccc3[nH]1)c(=O)n2C` [Example 304, 3-(6-(1-((4-chloro-1H-indol-2-yl)methyl)-3,7-dimethyl-2,6-dioxo-2,3,6,7-tetrahydro-1H-purin-8-ylamino)pyridin-2-yl)propanamide] fall in the same range of IC50: 10 to 1000 nM for the first, 10 to 1000 nM for the second.

`Cn1c(N[C@H]2C[C@H](CO)C2)nc2c1c(=O)n(Cc1cc3ccccc3[nH]1)c(=O)n2C` [Example 295, 1-((1H-indol-2-yl)methyl)-8-((1R,3R)-3-(hydroxymethyl)cyclobutylamino)-3,7-dimethyl-1H-purine-2,6(3H,7H)-dione] and `Cn1c(N[C@H]2C[C@H](CO)C2)nc2c1c(=O)n(Cc1cc3c(Cl)cccc3[nH]1)c(=O)n2C` [Example 305, 1-((4-chloro-1H-indol-2-yl)methyl)-8-((1R,3R)-3-(hydroxymethyl)cyclobutylamino)-3,7-dimethyl-1H-purine-2,6(3H,7H)-dione] fall in the same range of IC50: 10 to 1000 nM for the first, 10 to 1000 nM for the second.

`Cn1c(Nc2ccc(C(=O)O)cc2)nc2c1c(=O)n(Cc1cc3ccccc3[nH]1)c(=O)n2C` [Example 297, 4-[[1-(1H-indol-2-ylmethyl)-3,7-dimethyl-2,6-dioxo-purin-8-yl]amino]benzoic acid] and `Cn1c(Nc2ccncc2)nc2c1c(=O)n(Cc1cc3ccc(Cl)cc3[nH]1)c(=O)n2C` [Example 312, 1-((6-chloro-1H-indol-2-yl)methyl)-3,7-dimethyl-8-(pyridin-4-ylamino)-1H-purine-2,6(3H,7H)-dione] fall in the same range of IC50: 10 to 1000 nM for the first, 10 to 1000 nM for the second.

`Cn1c(Nc2ccc(CO)cc2)nc2c1c(=O)n(Cc1ccc(Cl)c(Cl)c1)c(=O)n2C` [Example 298, 1-(3,4-dichlorobenzyl)-8-((4-(hydroxymethyl)phenyl)amino)-3,7-dimethyl-3,7-dihydro-1H-purine-2,6-dione] and `Cn1c(Nc2ccc(C(N)=O)cc2)nc2c1c(=O)n(Cc1ccc(Cl)c(Cl)c1)c(=O)n2C` [Example 313, 4-[[1-[(3,4-dichlorophenyl)methyl]-3,7-dimethyl-2,6-dioxo-purin-8-yl]amino]benzamide] fall in the same range of IC50: 10 to 1000 nM for the first, 10 to 1000 nM for the second.

`Cn1c(Nc2ccccn2)nc2c1c(=O)n(Cc1cc3c(Cl)cccc3[nH]1)c(=O)n2C` [Example 302, 1-((4-chloro-1H-indol-2-yl)methyl)-3,7-dimethyl-8-(pyridin-2-ylamino)-1H-purine-2,6(3H, 7H)-dione] and `CN(C)C(=O)CCc1cccc(Nc2nc3c(c(=O)n(Cc4cc5c(Cl)cccc5[nH]4)c(=O)n3C)n2C)n1` [Example 329, 3-(6-(1-((4-chloro-1H-indol-2-yl)methyl)-3,7-dimethyl-2,6-dioxo-2,3,6,7-tetrahydro-1H-purin-8-ylamino)pyridin-2-yl)-N,N-dimethylpropanamide] fall in the same range of IC50: 10 to 1000 nM for the first, 10 to 1000 nM for the second.

Compared with `Cn1c(Nc2ccnc(C(=O)O)c2)nc2c1c(=O)n(Cc1ccc(Cl)c(Cl)c1)c(=O)n2C` [Example 303, 4-(1-(3,4-dichlorobenzyl)-3,7-dimethyl-2,6-dioxo-2,3,6,7-tetrahydro-1H-purin-8-ylamino)picolinic acid], `Cn1c(Nc2ccnc(C3CC(C(=O)O)C3)c2)nc2c1c(=O)n(Cc1ccc(Cl)c(Cl)c1)c(=O)n2C` (centres unmarked) [Example 309, 3-(4-(1-(3,4-dichlorobenzyl)-3,7-dimethyl-2,6-dioxo-2,3,6,7-tetrahydro-1H-purin-8-ylamino)pyridin-2-yl)cyclobutanecarboxylic acid] is lower in IC50: 1000 to 5000 nM for the first, 10 to 1000 nM for the second.

Compared with `Cn1c(=O)n(Cc2ccc(Cl)c(Cl)c2)c(=O)c2c1nc(NC1CCCC(C(=O)O)C1)n2CC(N)=O` (centres unmarked) [Example 306, 3-(7-(2-amino-2-oxoethyl)-1-(3,4-dichlorobenzyl)-3-methyl-2,6-dioxo-2,3,6,7-tetrahydro-1H-purin-8-ylamino)cyclohexanecarboxylic acid], `Cn1c(=O)n(Cc2ccc(Cl)c(Cl)c2)c(=O)c2c1nc(NC1CCCC(C(=O)O)C1)n2CC(=O)O` (centres unmarked) [Example 307, 3-(7-(carboxymethyl)-1-(3,4-dichlorobenzyl)-3-methyl-2,6-dioxo-2,3,6,7-tetrahydro-1H-purin-8-ylamino)cyclohexanecarboxylic acid] is higher in IC50: 10 to 1000 nM for the first, 1000 to 5000 nM for the second. The first is the more potent here.

`Cn1c(NC2CCCC(C(=O)O)C2)nc2c1c(=O)n(Cc1cc3c(Cl)cccc3[nH]1)c(=O)n2C` (centres unmarked) [Example 308, 3-(1-((4-chloro-1H-indol-2-yl)methyl)-3,7-dimethyl-2,6-dioxo-2,3,6,7-tetrahydro-1H-purin-8-ylamino)cyclohexanecarboxylic acid] and `Cc1cccc2[nH]c(Cn3c(=O)c4c(nc(N[C@H]5C[C@H](CO)C5)n4C)n(C)c3=O)cc12` [Example 327, 8-((1R,3R)-3-(hydroxymethyl)cyclobutylamino)-3,7-dimethyl-1-((4-methyl-1H-indol-2-yl)methyl)-1H-purine-2,6(3H,7H)-dione] fall in the same range of IC50: 10 to 1000 nM for the first, 10 to 1000 nM for the second.

`Cn1c(Nc2ccncc2)nc2c1c(=O)n(Cc1cc3c(F)cccc3[nH]1)c(=O)n2C` [Example 310, 1-((4-fluoro-1H-indol-2-yl)methyl)-3,7-dimethyl-8-(pyridin-4-ylamino)-1H-purine-2,6(3H,7H)-dione] and `Cc1cccc2[nH]c(Cn3c(=O)c4c(nc(Nc5ccncc5)n4C)n(C)c3=O)cc12` [Example 328, 1-((4-methyl-1H-indol-2-yl)methyl)-3,7-dimethyl-8-(pyridin-4-ylamino)-1H-purine-2,6(3H,7H)-dione] fall in the same range of IC50: 10 to 1000 nM for the first, 10 to 1000 nM for the second.

`Cn1c(Nc2ccncc2)nc2c1c(=O)n(Cc1[nH]c3ccccc3c1Cl)c(=O)n2C` [Example 311, 1-((3-chloro-1H-indol-2-yl)methyl)-3,7-dimethyl-8-(pyridin-4-ylamino)-1H-purine-2,6(3H,7H)-dione] and `Cc1ccc2cc(Cn3c(=O)c4c(nc(Nc5ccncc5)n4C)n(C)c3=O)[nH]c2c1` [Example 326, 3,7-dimethyl-1-((6-methyl-1H-indol-2-yl)methyl)-8-(pyridin-4-ylamino)-1H-purine-2,6(3H,7H)-dione] fall in the same range of IC50: 10 to 1000 nM for the first, 10 to 1000 nM for the second.

Compared with `Cn1c(Nc2ccc3c(c2)C(CC(=O)O)CC3)nc2c1c(=O)n(Cc1ccc(Cl)c(Cl)c1)c(=O)n2C` (centres unmarked) [Example 314, 2-(6-((1-(3,4-dichlorobenzyl)-3,7-dimethyl-2,6-dioxo-2,3,6,7-tetrahydro-1H-purin-8-yl)amino)-2,3-dihydro-1H-inden-1-yl)acetic acid], `Cn1c(Nc2ccc3c(c2)C(CCO)CC3)nc2c1c(=O)n(Cc1ccc(Cl)c(Cl)c1)c(=O)n2C` (centres unmarked) [Example 323, 1-(3,4-dichlorobenzyl)-8-((3-(2-hydroxyethyl)-2,3-dihydro-1H-inden-5-yl)amino)-3,7-dimethyl-1H-purine-2,6(3H,7H)-dione] is higher in IC50: 10 to 1000 nM for the first, 1000 to 5000 nM for the second.

`Cn1c(=O)n(Cc2ccc(Cl)c(Cl)c2)c(=O)c2c1nc(NC1CCCC(C(=O)O)C1)n2CCO` (centres unmarked) [Example 316, 3-(1-(3,4-dichlorobenzyl)-7-(2-hydroxyethyl)-3-methyl-2,6-dioxo-2,3,6,7-tetrahydro-1H-purin-8-ylamino)cyclohexanecarboxylic acid] and `Cn1c(=O)n(Cc2ccc(Cl)c(Cl)c2)c(=O)c2c1nc(NC1CCCC(C(=O)O)C1)n2CCC(N)=O` (centres unmarked) [Example 318, 3-(7-(3-amino-3-oxopropyl)-1-(3,4-dichlorobenzyl)-3-methyl-2,6-dioxo-2,3,6,7-tetrahydro-1H-purin-8-ylamino)cyclohexanecarboxylic acid] fall in the same range of IC50: 10 to 1000 nM for the first, 10 to 1000 nM for the second.

`Cn1c(Nc2ccnc(C3CC(C(N)=O)C3)c2)nc2c1c(=O)n(Cc1ccc(Cl)c(Cl)c1)c(=O)n2C` (centres unmarked) [Example 319, 3-(4-(1-(3,4-dichlorobenzyl)-3,7-dimethyl-2,6-dioxo-2,3,6,7-tetrahydro-1H-purin-8-ylamino)pyridin-2-yl)cyclobutanecarboxamide] and `Cn1c(Nc2ccnc(C3CC(CO)C3)c2)nc2c1c(=O)n(Cc1ccc(Cl)c(Cl)c1)c(=O)n2C` (centres unmarked) [Example 320, 1-(3,4-dichlorobenzyl)-8-(2-(3-(hydroxymethyl)cyclobutyl)pyridin-4-ylamino)-3,7-dimethyl-1H-purine-2,6(3H,7H)-dione] fall in the same range of IC50: 10 to 1000 nM for the first, 10 to 1000 nM for the second.

`Cn1c(Nc2ccc3c(c2)CC(CO)C3)nc2c1c(=O)n(Cc1ccc(Cl)c(Cl)c1)c(=O)n2C` (centres unmarked) [Example 324, 1-(3,4-dichlorobenzyl)-8-((2-(hydroxymethyl)-2,3-dihydro-1H-inden-5-yl)amino)-3,7-dimethyl-1H-purine-2,6(3H,7H)-dione] showed an IC50 of 1000 to 5000 nM.
